Experiments:
Human PGDH = Human PGDH (Homo sapiens, UniProt O43175); experiment: Inhibition of human PGDH; type: biochemical; conditions: unpublished observation
Native M. tb PGDH [1] = biological target: T1, Native M. tb PGDH (Mycobacterium tuberculosis, UniProt P9WNX3); type: biochemical; conditions: high HPAP level where substrate inhibition is significant, pH 7.5
M. tb PGDH [2] = conditions: cited from earlier work
Native M. tb PGDH [3] = biological target: T1, Native M. tb PGDH; experiment: Stopped-flow time course of NADH turnover with kinetic simulation to Scheme 2; type: biochemical; conditions: for k+i / k-i: from simulation
Native M. tb PGDH [4] = biological target: T1, Native M. tb PGDH; type: biochemical; conditions: HPAP 400 μM, NADH varied, 200 mM potassium phosphate, pH 7.5
Native M. tb PGDH [5] = biological target: T1, Native M. tb PGDH; type: binding; conditions: no substrate, excitation 295 nm, fluorescence 420 nm, pH 7.5
M. tb PGDH [6] = conditions: cited from earlier work; remark: listed apart in the source
M. tb PGDH [7] = experiment: Transient binding of NADH to the enzyme in the absence of substrate; set-up: species or system Mycobacterium tuberculosis; conditions: read-out: Kd of NADH at the second (anion-binding) site; calculated from the rates of NADH binding determined in the absence of substrate
Native M. tb PGDH [8] = biological target: T1, Native M. tb PGDH; conditions: read-out: Ki, HPAP (substrate inhibition); cited from earlier work
[9] = step ES + N = ESN (NADH to active site)
[10] = step ES + N = NES (NADH to second site)
[11] = step ESN + N = NESN (NADH to second site)
[12] = step SES + N = SESN (NADH to active site)

T1 sequence (P9WNX3 whole entry): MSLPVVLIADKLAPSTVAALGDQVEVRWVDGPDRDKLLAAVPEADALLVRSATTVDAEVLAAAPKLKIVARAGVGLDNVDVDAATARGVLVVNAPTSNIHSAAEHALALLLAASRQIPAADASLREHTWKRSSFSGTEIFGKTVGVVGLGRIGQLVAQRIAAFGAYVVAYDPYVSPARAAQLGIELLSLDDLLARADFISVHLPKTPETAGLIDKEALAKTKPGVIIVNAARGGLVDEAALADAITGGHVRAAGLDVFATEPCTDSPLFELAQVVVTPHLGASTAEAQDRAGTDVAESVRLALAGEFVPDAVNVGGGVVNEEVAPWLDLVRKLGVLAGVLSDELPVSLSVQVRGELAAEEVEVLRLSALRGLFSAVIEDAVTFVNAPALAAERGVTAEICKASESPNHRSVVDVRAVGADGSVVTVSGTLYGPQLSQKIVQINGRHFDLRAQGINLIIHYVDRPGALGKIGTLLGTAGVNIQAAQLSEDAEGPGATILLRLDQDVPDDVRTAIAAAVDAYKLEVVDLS
Sequence of Human PGDH (O43175 whole entry): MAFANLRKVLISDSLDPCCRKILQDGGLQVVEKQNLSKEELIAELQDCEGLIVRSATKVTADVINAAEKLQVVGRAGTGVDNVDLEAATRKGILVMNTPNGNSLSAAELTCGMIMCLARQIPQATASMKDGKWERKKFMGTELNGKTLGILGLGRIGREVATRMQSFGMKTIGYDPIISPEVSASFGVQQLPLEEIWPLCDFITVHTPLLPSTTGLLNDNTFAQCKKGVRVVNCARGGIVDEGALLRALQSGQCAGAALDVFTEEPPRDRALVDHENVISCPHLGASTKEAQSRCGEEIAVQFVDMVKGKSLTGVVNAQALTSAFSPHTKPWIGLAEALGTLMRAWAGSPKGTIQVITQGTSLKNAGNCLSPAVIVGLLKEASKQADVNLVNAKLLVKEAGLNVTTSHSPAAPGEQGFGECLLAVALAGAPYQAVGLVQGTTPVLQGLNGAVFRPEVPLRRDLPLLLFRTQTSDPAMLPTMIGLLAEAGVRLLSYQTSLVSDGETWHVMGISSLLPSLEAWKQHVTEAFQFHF

## N[C@@H](CO)C(=O)O [L-serine]
Human PGDH
  Inhibition by L-serine: not inhibited
Native M. tb PGDH [1]
  n (Hill coefficient), serine inhibition, High Substrate: 1.5 ± 0.1

## O=C(O)C(O)C(O)C(=O)O (stereo not shown) [tartrate]
M. tb PGDH [2]
  Effect of tartrate binding to the anion-binding site on rate of catalysis: does not effect the rate of catalysis

## NADH
Native M. tb PGDH [3]; [9]
  k+i: 4.09e+08 M⁻¹ s⁻¹
  k-i: 70 s⁻¹
Native M. tb PGDH [3]; [10]
  k+i: 0 M⁻¹ s⁻¹
  k-i: 0 s⁻¹
Native M. tb PGDH [3]; [11]
  k+i: 0 M⁻¹ s⁻¹
  k-i: 0 s⁻¹
Native M. tb PGDH [3]; step NES + N = NESN (NADH to active site)
  k+i: 7.59e+08 M⁻¹ s⁻¹
Native M. tb PGDH [3]; [12]
  k+i: 190000 M⁻¹ s⁻¹
  k-i: 3 s⁻¹
Native M. tb PGDH [4]
  K0.5, Activity vs NADH: 106 ± 5 µM
  n (Hill coefficient), Activity vs NADH: 2.5 ± 0.2
Native M. tb PGDH [5]
  K0.5, FRET vs NADH: 3.2 ± 0.1 µM
  n (Hill coefficient), FRET vs NADH: 1.6 ± 0.1
M. tb PGDH [6]
  k+i: 0.37 ^c μM^-1s^-1
  k-i: 0.22 ^c s^-1
M. tb PGDH [7]
  Kd: ~0.6 µM

## hydroxypyruvic acid phosphate [HPAP]
Human PGDH
  Substrate inhibition by HPAP: displays substrate inhibition
Native M. tb PGDH [3]; read-out: Kd for HPAP at the second (anion-binding) site
  Kd: ~8 µM
Native M. tb PGDH [8]
  Ki: 950 ± 120 µM

From publication PMC2692652 (Biochemistry, 2009)
